In brackets after ≈: the same amount, converted by molar mass.
Key:
[1] = system: normal mouse fibroblast Balb/3T3 cells; experiment: In vitro cytotoxicity (SRB), Balb/3T3; type: cell-based; details: mean ± SD; for IC50: Mus musculus, BALB/3T3, 72 h exposure
Method: Biphenotypic B myelomonocytic leukemia MV4-11, human lung carcinoma A549, human breast carcinoma MCF-7, and normal mouse fibroblast BALB/3T3 cells were obtained from American Type Culture Collection (Rockville, Maryland, USA). All the cell lines are being maintained at the Institute of Immunology and Experimental Therapy, Wroclaw, Poland. MV4-11 cells were cultured in RPMI 1640 medium (Gibco, UK) with 2 mM L-glutamine adjusted to contain 1.0 mM sodium pyruvate, and 10% fetal bovine serum (FBS) (all from Sigma-Aldrich, Germany). A549 cells were cultured in RPMI 1640+ Opti-MEM (1:1) (both from Gibco, UK), MCF-7 cells in Eagle medium (IIET, Wroclaw, Poland), BALB/3T3 in Dulbecco medium (IIET, Poland) supplemented with 2 mM L-glutamine and 1.0 mM sodium pyruvate, 10% fetal bovine serum (all from Sigma-Aldrich, Germany). The MCF-7 cell culture was supplemented with 0.8 mg/l of insulin (Sigma-Aldrich, Germany). All culture media were supplemented with 100 units/ml penicillin, and 100 µg/ml streptomycin (both from Polfa Tarchomin S.A., Poland). All cell lines were grown at 37 °C with 5% CO2 humidified atmosphere (Łączkowski et al. [2014], [2016a]). Prior to usage, the compounds were dissolved in DMSO and culture medium (1: 9) to the concentration of 1 mg/ml, and subsequently diluted in culture medium to reach the required concentrations (0.1, 1, 10, and 100 µg/ml) (Łączkowski et al. [2014], [2016a]). Twenty-four hours prior to the addition of the tested compounds, the cells counted using Burker hemocytometer were plated in 96-well plates (Sarstedt, Germany) at a density of 1 × 10^4 cells per well. The assay was performed after 72 h of exposure to varying concentrations of the tested agents. The in vitro cytotoxic effect of all agents was examined using the SRB assay for adherent cells (A549, MCF-7, and BALB/3T3) or MTT assay for leukemia cells (MV4-11) as described previously. […] Each compound in each concentration was tested in triplicate in a single experiment, which was repeated 3–7 times (Rubinstein et al. [1990]; Bramson et al. [1995]). Cells were attached to the bottom of plastic wells by fixing them with cold 50% TCA (trichloroacetic acid, POCH, Gliwice, Poland) on top of the culture medium in each well. The plates were incubated at 4 °C for 1 h and then washed five times with tap water. The cellular material fixed with TCA was stained with 0.1% sulforhodamine B (SRB, Sigma-Aldrich, Germany) and dissolved in 1% acetic acid (POCH, Gliwice, Poland) for 30 min. Unbound dye was removed by rinsing (4×) in 1% acetic acid. The protein-bound dye was extracted with 10 mM unbuffered Tris base (Sigma-Aldrich, Germany) for determination of the optical density (λ = 540 nm) in a computer-interfaced, 96-well Synergy H4 (BioTek Instruments USA) photometer microtiter plate reader (Sidoryk et al. [2012]).

[2] = system: Toxoplasma gondii BK strain; experiment: T. gondii tachyzoite intracellular proliferation in VERO host cells ([3H]uracil incorporation); type: cell-based; details: VERO host cells; for activity at 0.9 µg/mL / activity at 1.8 µg/mL / activity at 3.9 µg/mL / activity at 7.8 µg/mL / activity at 15.6 µg/mL / activity at 31.2 µg/mL / activity at 62.5 µg/mL / activity at 125 µg/mL / IC50: Toxoplasma gondii; for IC50: read-out: IC50 (50% inhibition of T. gondii proliferation in vitro)
Outline: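 VERO monolayers (2 × 10^4 cells/well) infected with 2 × 10^5 T. gondii tachyzoites/well in medium containing compounds at 0.9–125.00 μg/ml, with sulfadiazine at 5.0–2500.0 μg/ml as control, for 48 h at 37 °C. Growth measured by [3H]uracil incorporation over a further 18–20 h by scintillation counting, with host-cell-only cpm subtracted.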

`C/C(=N\Nc1nc(-c2ccc([N+](=O)[O-])cc2)cs1)c1ccc(Nc2nc(N)nc(N)n2)cc1` [Compound 4h, (E)-N^2-(4-(1-(2-(4-(4-nitrophenyl)-1,3-thiazol-2-yl)hydrazinylidene)ethyl)phenyl)-1,3,5-triazine-2,4,6-triamine] was tested, and the IC50 [1] was greater than 100 µg/mL, the activity at 0.9 µg/mL ([2]; 0.9 µg/ml) was 103% and the activity at 1.8 µg/mL ([2]; 1.8 µg/ml) was 105%. The activity at 3.9 µg/mL ([2]; 3.9 µg/ml) was 113%, the activity at 7.8 µg/mL ([2]; 7.8 µg/ml) was 101% and the activity at 15.6 µg/mL ([2]; 15.6 µg/ml) was 85.7%. For the same compound, the activity at 31.2 µg/mL ([2]; 31.2 µg/ml) was 77.5%, the activity at 62.5 µg/mL ([2]; 62.5 µg/ml) was 74% and the activity at 125 µg/mL ([2]; 125.0 µg/ml) was 39.4%. For the same compound, the IC50 ([2]; GraphPad Prism curves) was 119 µg/mL (≈ 257 µM).

`C/C(=N\Nc1nc(-c2ccc(C)cc2)cs1)c1ccc(Nc2nc(N)nc(N)n2)cc1` [Compound 4c, (E)-N^2-(4-(1-(2-(4-(4-tolyl)-1,3-thiazol-2-yl)hydrazinylidene)ethyl)phenyl)-1,3,5-triazine-2,4,6-triamine] gave an IC50 [1] greater than 100 µg/mL, an activity at 0.9 µg/mL ([2]; 0.9 µg/ml) of 102% and an activity at 1.8 µg/mL ([2]; 1.8 µg/ml) of 102%. The activity at 3.9 µg/mL ([2]; 3.9 µg/ml) was 110%, the activity at 7.8 µg/mL ([2]; 7.8 µg/ml) was 100% and the activity at 15.6 µg/mL ([2]; 15.6 µg/ml) was 86.2%. The activity at 31.2 µg/mL ([2]; 31.2 µg/ml) was 58.6%, the activity at 62.5 µg/mL ([2]; 62.5 µg/ml) was 40.1% and the activity at 125 µg/mL ([2]; 125.0 µg/ml) was 30.9%. The IC50 ([2]; GraphPad Prism curves) was 51.4 µg/mL (≈ 119 µM).

Work on `C/C(=N\Nc1nc(-c2ccc(Cl)cc2)cs1)c1ccc(Nc2nc(N)nc(N)n2)cc1` [Compound 4b, (E)-N^2-(4-(1-(2-(4-(4-chlorophenyl)-1,3-thiazol-2-yl)hydrazinylidene)ethyl)phenyl)-1,3,5-triazine-2,4,6-triamine] yielded an IC50 [1] greater than 100 µg/mL, an activity at 0.9 µg/mL ([2]; 0.9 µg/ml) of 100% and an activity at 1.8 µg/mL ([2]; 1.8 µg/ml) of 106%. It also gave an activity at 3.9 µg/mL ([2]; 3.9 µg/ml) of 101%, an activity at 7.8 µg/mL ([2]; 7.8 µg/ml) of 98.2% and an activity at 15.6 µg/mL ([2]; 15.6 µg/ml) of 74.6%. The activity at 31.2 µg/mL ([2]; 31.2 µg/ml) was 52.2%, the activity at 62.5 µg/mL ([2]; 62.5 µg/ml) was 26.1% and the activity at 125 µg/mL ([2]; 125.0 µg/ml) was 14.7%. It also gave an IC50 ([2]; GraphPad Prism curves) of 33 µg/mL (≈ 73.1 µM).

With `C/C(=N\Nc1nc(-c2ccc(NS(C)(=O)=O)cc2)cs1)c1ccc(Nc2nc(N)nc(N)n2)cc1` [Compound 4j, (E)-N-(4-(2-(2-(1-(4-(4,6-diamino-1,3,5-triazin-2-yloamino)phenyl)ethylidene)hydrazinyl)thiazol-4-yl)phenyl)-methanesulfonamide] the “IC50 Balb/3T3” value ([1]; 72 h exposure) was greater than 100 µg/mL, the “T. gondii intracellular proliferation” value ([2]; 0.9 µg/ml) was 99.93% and the “T. gondii intracellular proliferation” value ([2]; 1.8 µg/ml) was 100.25%. For the same compound, the “T. gondii intracellular proliferation” value ([2]; 3.9 µg/ml) was 99.58%, the “T. gondii intracellular proliferation” value ([2]; 7.8 µg/ml) was 89.65% and the “T. gondii intracellular proliferation” value ([2]; 15.6 µg/ml) was 78.25%. The “T. gondii intracellular proliferation” value ([2]; 31.2 µg/ml) was 67.01%, the “T. gondii intracellular proliferation” value ([2]; 62.5 µg/ml) was 46.07% and the “T. gondii intracellular proliferation” value ([2]; 125.0 µg/ml) was 34.60%. The “IC50 (50% inhibition of T. gondii proliferation in vitro)” value ([2]; GraphPad Prism curves) was 59.87 µg/mL.
